According to ChEMBL document CHEMBL5505975, “Design, synthesis and biological evaluation of CDC20 inhibitors for treatment of triple-negative breast cancer” (Eur J Med Chem, 2024):
pIC50: −log10 of the molar value.

How the values were obtained:
MCF7 = test: Antiproliferative activity against human MCF7 cells assessed as reduction in cell viability incubated for 96 hrs by MTT assay; conditions: MCF7, 96 h
MDA-MB-231 = test: Antiproliferative activity against human MDA-MB-231 cells assessed as reduction in cell viability incubated for 96 hrs by MTT assay; conditions: MDA-MB-231, 96 h
A549 = test: Antiproliferative activity against human A549 cells assessed as reduction in cell viability incubated for 96 hrs by MTT assay; conditions: A549, 96 h
MDA-MB-468 = test: Antiproliferative activity against human MDA-MB-468 cells assessed as reduction in cell viability incubated for 96 hrs by MTT assay; conditions: MDA-MB-468, 96 h
[1] = Cytotoxicity against human L02 cells assessed as reduction in cell viability incubated for 96 hrs by MTT assay; assay type: toxicity, cell-based

Row | SMILES | pIC50 (MCF7) | pIC50 (MDA-MB-231) | pIC50 (A549) | pIC50 (MDA-MB-468) | IC50 at 96 h [1] [µM]
1 | CCC(=O)NC(Nc1nc(Nc2ccc(C(F)(F)F)cc2F)c2cc[nH]c2n1)C(Cl)(Cl)Cl (stereo not given) | 4.87 | 4.90 | 4.95 | 4.85 | 14
2 | CCC(=O)NC(n1cnc2c(Nc3ccc(C(F)(F)F)cc3)nc(N)nc21)C(Cl)(Cl)Cl (stereo not given) | 4.99 | 5.02 | 4.98 | 4.95 | 12.3
3 | CCCCCC(=O)NC(Nc1nc(Nc2ccc(C(F)(F)F)cc2)c2cc[nH]c2n1)C(Cl)(Cl)Cl (stereo not given) | 5.16 | 5.21 | 5.08 | 4.92 | 14.4
4 | CCC(=O)NC(n1cnc2c(Nc3cc(OC)cc(OC)c3)nc(N)nc21)C(Cl)(Cl)Cl (stereo not given) | < 4.70 | < 4.70 | < 4.70 | < 4.70 | > 20
5 | COc1cc(Nc2nc(NC(NC(=O)C3CCCCC3)C(Cl)(Cl)Cl)nc3[nH]ccc23)cc(OC)c1 (stereo not given) | < 4.70 | < 4.70 | < 4.70 | < 4.70 | > 20
6 | CCC(=O)NC(Nc1nc(Nc2cc(F)c(OC)c(F)c2)c2cc[nH]c2n1)C(Cl)(Cl)Cl (stereo not given) | 5.14 | 5.09 | 5.06 | 4.98 | 14.5
7 | CCC(=O)NC(Nc1nc(Nc2cc(OC)cc(OC)c2)c2cc[nH]c2n1)C(Cl)(Cl)Cl (stereo not given) | < 4.70 | < 4.70 | < 4.70 | < 4.70 | > 20
8 | CCCC(=O)NC(Nc1nc(Nc2cc(OC)c(OC)c(OC)c2)c2cc[nH]c2n1)C(Cl)(Cl)Cl (stereo not given) | 4.71 | 5.00 | < 4.70 | 4.77 | 14.4
9 | COc1cc(Nc2nc(NC(NC(=O)C3CCCCC3)C(Cl)(Cl)Cl)nc3[nH]ccc23)cc(OC)c1OC (stereo not given) | 4.86 | 4.94 | 4.97 | 4.91 | 14
10 | CCC(=O)NC(Nc1nc(Nc2ccc3scnc3c2)c2cc[nH]c2n1)C(Cl)(Cl)Cl (stereo not given) | < 4.70 | < 4.70 | < 4.70 | < 4.70 | > 20
11 | O=C(NC(Nc1nc(Nc2ccc(C(F)(F)F)cc2)c2cc[nH]c2n1)C(Cl)(Cl)Cl)C1CCCCC1 (stereo not given) | 5.09 | 5.06 | 5.03 | 5.04 | 11.6
12 | CCCCC(=O)NC(Nc1nc(Nc2cc(OC)cc(OC)c2)c2cc[nH]c2n1)C(Cl)(Cl)Cl (stereo not given) | < 4.70 | < 4.70 | < 4.70 | < 4.70 | > 20
13 | CCC(=O)NC(Nc1nc(Nc2ccc(OC(F)(F)F)cc2)c2cc[nH]c2n1)C(Cl)(Cl)Cl (stereo not given) | 4.93 | 4.79 | 4.95 | 4.74 | 25.3
14 | CCC(=O)NC(Nc1nc(Nc2ccc(OC)cc2)c2cc[nH]c2n1)C(Cl)(Cl)Cl (stereo not given) | < 4.70 | < 4.70 | < 4.70 | < 4.70 | > 20
15 | O=C(NC(Nc1nccc(Nc2ccc(C(F)(F)F)cc2)n1)C(Cl)(Cl)Cl)C1CC1 (stereo not given) | < 4.70 | < 4.70 | < 4.70 | < 4.70 | > 20
16 | CCCC(=O)NC(Nc1nc(Nc2cc(OC)cc(OC)c2)c2cc[nH]c2n1)C(Cl)(Cl)Cl (stereo not given) | < 4.70 | < 4.70 | < 4.70 | < 4.70 | > 20
17 | CCCCCC(=O)NC(Nc1nc(Nc2cc(OC)c(OC)c(OC)c2)c2cc[nH]c2n1)C(Cl)(Cl)Cl (stereo not given) | 4.78 | 5.08 | 4.97 | 4.82 | 12.3

Row | SMILES | pIC50 (MCF7) | pIC50 (MDA-MB-231) | pIC50 (A549) | pIC50 (MDA-MB-468) | IC50 at 96 h [1] [µM]
18 | CCC(=O)NC(Nc1nc(Nc2cc(OC)c(OC)c(OC)c2)c2cc[nH]c2n1)C(Cl)(Cl)Cl (stereo not given) | 4.83 | 5.06 | 4.94 | 4.80 | 9.01
19 | CCC(=O)NC(n1cnc2c(Nc3ccc(OC)cc3)nc(N)nc21)C(Cl)(Cl)Cl (stereo not given) | < 4.70 | < 4.70 | < 4.70 | < 4.70 | > 20
20 | CCC(=O)NC(Nc1nc(Nc2ccc(OC)c(Cl)c2)c2cc[nH]c2n1)C(Cl)(Cl)Cl (stereo not given) | < 4.70 | < 4.70 | < 4.70 | < 4.70 | > 20
21 | CCC(=O)NC(Nc1nc(Nc2ccc(C(F)(F)F)cc2Cl)c2cc[nH]c2n1)C(Cl)(Cl)Cl (stereo not given) | 4.75 | 4.90 | 5.16 | < 4.70 | 14.5
22 | O=C(NC(Nc1nc(Nc2ccc(C(F)(F)F)cc2)c2cc[nH]c2n1)C(Cl)(Cl)Cl)C1CC1 (stereo not given) | 5.17 | 5.22 | 5.18 | 4.99 | 16.1
23 | CCC(=O)NC(n1cnc2c(Nc3ccc4c(c3)OCO4)nc(N)nc21)C(Cl)(Cl)Cl (stereo not given) | < 4.70 | < 4.70 | < 4.70 | < 4.70 | > 20
24 | CCC(=O)NC(Nc1nc(Nc2ccc(C(F)(F)F)nc2)c2cc[nH]c2n1)C(Cl)(Cl)Cl (stereo not given) | < 4.70 | 4.70 | < 4.70 | < 4.70 | > 20
25 | CCCCCC(=O)NC(Nc1nc(Nc2cc(OC)cc(OC)c2)c2cc[nH]c2n1)C(Cl)(Cl)Cl (stereo not given) | < 4.70 | < 4.70 | < 4.70 | < 4.70 | > 20
26 | CCC(=O)NC(Nc1nc(Nc2ccc(OC(F)(F)F)c(F)c2)c2cc[nH]c2n1)C(Cl)(Cl)Cl (stereo not given) | 5.03 | 4.99 | 5.12 | < 4.70 | 7.55
27 | CCCC(=O)NC(Nc1nc(Nc2ccc(C(F)(F)F)cc2)c2cc[nH]c2n1)C(Cl)(Cl)Cl (stereo not given) | 5.18 | 5.14 | 5.14 | 5.02 | 10.2
28 | CCC(=O)NC(Nc1nc(Nc2ccc(OC)c(OC)c2)c2cc[nH]c2n1)C(Cl)(Cl)Cl (stereo not given) | < 4.70 | < 4.70 | < 4.70 | < 4.70 | > 20
29 | CCC(=O)NC(n1cnc2c(Nc3ccc(OC)c(Cl)c3)nc(N)nc21)C(Cl)(Cl)Cl (stereo not given) | < 4.70 | < 4.70 | < 4.70 | < 4.70 | > 20
30 | CCCc1ccc(Nc2nc(NC(NC(=O)CC)C(Cl)(Cl)Cl)nc3[nH]ccc23)cc1 (stereo not given) | < 4.70 | < 4.70 | < 4.70 | < 4.70 | > 20
31 | CCCCC(=O)NC(Nc1nc(Nc2cc(OC)c(OC)c(OC)c2)c2cc[nH]c2n1)C(Cl)(Cl)Cl (stereo not given) | 4.71 | 4.98 | 4.84 | < 4.70 | > 20
32 | CCC(=O)NC(Nc1nc(Nc2ccc(C(F)(F)F)cc2)c2cc[nH]c2n1)C(Cl)(Cl)Cl (stereo not given) | 5.21 | 5.11 | 5.10 | 5.00 | 12.8
33 | CCCCC(=O)NC(Nc1nc(Nc2ccc(C(F)(F)F)cc2)c2cc[nH]c2n1)C(Cl)(Cl)Cl (stereo not given) | 5.12 | 5.13 | 5.14 | 4.88 | 8.85
